# Experimental data from patent US9663561B2, “Methods of treatment of cancer using SRC-modulating peptides” (The University of Toledo, priority 2006, dated 2017).
# How the values were obtained:
# [1] = target: T1, Src-ECFP and EYFP-rat α1 in LLC-PK1 cells (Rattus norvegicus, UniProt P06685); experiment: FRET analysis in live cells; assay type: cell-based, pig; details: 100 μM ouabain, live LLC-PK1 cell
# T1 construct: expressed in transfected cells; host or cells: LLC-PK1 (pig kidney)
# Description: LLC-PK1 cells were cotransfected with Src-ECFP and EYFP-rat α1 and grown on a glass coverslip for 24 h. The coverslip was then mounted in a metal chamber and analyzed with a Leica DMIRE2 confocal microscope. The laser lines of 456 nm and 515 nm were used to illuminate fluorescence, and the emission intensities were recorded at 465-509 nm for Src-ECFP and 530-570 nm for EYFP-rat α1. The cell that expresses both Src-ECFP and EYFP-rat α1 was chosen and illuminated by only 456-nm laser. The cells express only Src-ECFP or EYFP-rat α1 were used for correction and determination of the laser intensity as well as the gain and offset settings. The emission intensities for both Src-ECFP and EYFP-rat α1 in selected membrane region was recorded at 465-509 nm (FECFP) and 530-570 nm (FEYEP), respectively. The FRET efficiency was reflected by the ratio of FEYFP/FECFP. After 50 s of recording, the same cell was exposed to ouabain and the recording was continued for indicated time.
# LLC-PK1 cells [2] = experiment: Tyrosine phosphorylation of Na+/K+-ATPase-associated proteins (anti-α1 immunoprecipitation); assay type: cell-based, pig; details: 1 μM ouabain, 5 min
# Description: FIG. 9A. LLC-PK1 cells were treated with 1 μM ouabain for 5 min, and cell lysates were immunoprecipitated with anti-α1 antibody and analyzed for tyrosine phosphorylated proteins.
# (§1) Cells were lysed in RIPA buffer containing 1% Nonidet P40, 0.25% sodium deoxycholate, 150 mM NaCl, 1 mM EDTA, 1 mM phenylmethylsulfonyl fluoride, 1 mM sodium orthovanadate, 1 mM NaF, 10 μg/ml aprotinin, 10 μg/mlleupeptin, and 50 mM Tris-HCl (pH 7.4). Cell lysates were cleared by centrifugation at 16,000×g for […], and the supernatants (1 mg) were either immunoprecipitated with anti-α1 antibody or incubated with different GST-fusion proteins. The complexes were then pulled down by either protein G agarose or glutathione beads (Ma et al., 2000; Haas et al., 2002) and analyzed by Western blot.
# SYF and SYF+Src cells = experiment: Protein tyrosine phosphorylation in SYF and SYF+Src cells; assay type: cell-based, mouse; details: 100 μM ouabain 5 min
# Description: FIG. 9B. Both SYF and SYF+Src cells were treated with 100 μM ouabain for 5 min and analyzed as in A. Representative Western blots of three experiments are shown in both A and B.
# as §1
# LLC-PK1 cells [3] = experiment: Recruitment of Src to the Na+/K+-ATPase signaling complex (co-immunoprecipitation); assay type: cell-based, pig; details: 1 μM ouabain 5 min, control cells
# Description: FIG. 9C Inhibition of Src blocks ouabain-induced recruitment of Src to the Na+/K+-ATPase signaling complex. LLC-PK1 cells were pretreated with 1 μM PP2 or PP3 for 15 min and then exposed to 1 μM ouabain for 5 min. Cell lysates were immunoprecipitated and analyzed. Values are mean±SE of at least four independent experiments. * p<0.05.
# as §1
# Src and ERK1/2 = experiment: Activation of Src and ERK1/2 in P-11, A4-11, PY-17 and AAC-19 cells (Western blot); assay type: cell-based, pig; details: for Src activation (Tyr(P)418-Src): 100 nM ouabain
# Description: FIGS. 18A and 18B. Cells were exposed to 100 nM ouabain for either 5 or 15 min, and the cell lysates (50 μg/lane) were analyzed by Western blot for active Src or active ERK1/2. Blots were probed first with anti-Tyr(P)^418-Src or anti-pERK antibody, then stripped, and reprobed for total Src or ERK1/2 to ensure equal loading.
# FIGS. 18 C and 18D. Cells were treated with indicated concentrations of ouabain for 5 min, and total cell lysates were analyzed for Tyr(P)^418-Src and total Src or pERK1/2 and total ERK1/2 as in FIGS. 18A and 18B. A representative Western blot and combined quantitative data are shown. The quantitative data (relative ratio of pSrc/Src or pERK/ERK) from three independent experiments (mean±S.E.) were calculated relative to the control condition of P-11 cells. *, p<0.05 versus the respective control condition of each cell line. con, control.
# Cells were washed with PBS, solubilized in modified ice-cold radioimmune precipitation assay buffer, and subjected to immunoprecipitation or Western blot analysis. Protein signal was detected using the enhanced chemiluminescence kit and quantified using a Bio-Rad GS-670 imaging densitometer.
smiles,measurement,setting,value
C[C@@H]1O[C@@H](O[C@H]2C[C@@H](O)[C@]3(CO)[C@H]4[C@H](O)C[C@]5(C)[C@@H](C6=CC(=O)OC6)CC[C@]5(O)[C@@H]4CC[C@]3(O)C2)[C@H](O)[C@H](O)[C@H]1O [ouabain],FRET between Src-ECFP and EYFP-rat α1,[1],reduction in FRET
same,tyrosine phosphorylation of Na+/K+-ATPase-associated proteins,LLC-PK1 cells [2],stimulated tyrosine phosphorylation
same,effects of ouabain on protein tyrosine phosphorylation,SYF and SYF+Src cells; SYF cells,completely abolished
same,effects of ouabain on protein tyrosine phosphorylation,SYF and SYF+Src cells; SYF+Src cells,restored
same,Src coprecipitated with α1,LLC-PK1 cells [3],increased coprecipitated Src
same,Src activation (Tyr(P)418-Src),Src and ERK1/2; A4-11 cells,significant reduction
same,dose-response of Src and ERK1/2 activation,Src and ERK1/2; AAC-19 cells (rat α1 knock-in),shifted the dose-response curve to the right
same,Src activation (Tyr(P)418-Src),Src and ERK1/2; P-11 cells,activated Src
same,Src activation (Tyr(P)418-Src),Src and ERK1/2; PY-17 cells,essentially abolished
same,ERK1/2 phosphorylation,"Src and ERK1/2; PY-17 cells, ouabain",failed to detect any ouabain-induced change
